The conditions of data set [1]: 298.15 K, 101.33 kPa, Liquid; for viscosity: Falling or rolling sphere viscometry; for mass density: Vibrating tube method.
Data set [2] is described as follows: mn = molality of the nth substance listed, in mol/kg. To be noted: 100 kPa, Liquid, m2 = 0; for viscosity: Falling or rolling sphere viscometry; for mass density: Vibrating tube method.

The text below walks through data of the NIST ThermoML archive (doi:10.1021/je500380x).

Numbers after ± are expanded uncertainties.

What is called viscosity is the internal friction of a fluid under shear. As usually defined, the mass density is mass per unit of volume. Take `CCO` [ethanol]: in data set [1], the viscosity is recorded as 1.083 ± 0.013 mPa·s and the mass density turned out to be 785.339 ± 0.13 kg/m3.
As for `CCO` [ethanol] + CCC(=O)OCCN1CCNCC1, the viscosity in data set [2] (293.15 K) came to 1.189 ± 0.015 mPa·s; in data set [2] (298.15 K), 1.083 ± 0.013 mPa·s; in data set [2] (303.15 K), 0.989 ± 0.012 mPa·s; in data set [2] (308.15 K) it was 0.905 ± 0.011 mPa·s; in data set [2] (313.15 K), 0.831 ± 0.01 mPa·s; in data set [2] (318.15 K), 0.765 ± 0.009 mPa·s. The viscosity in data set [2] (323.15 K) is recorded as 0.706 ± 0.009 mPa·s. Also, the mass density is reported as 789.64 ± 0.15 kg/m3 in data set [2] (293.15 K); 785.34 ± 0.15 kg/m3 in data set [2] (298.15 K); 781.03 ± 0.15 kg/m3 in data set [2] (303.15 K); 776.68 ± 0.16 kg/m3 in data set [2] (308.15 K); 772.29 ± 0.16 kg/m3 in data set [2] (313.15 K); 767.86 ± 0.16 kg/m3 in data set [2] (318.15 K). The mass density in data set [2] (323.15 K) came to 763.38 ± 0.16 kg/m3.
As to `CO` [methanol], in data set [1], the viscosity is given as 0.559 ± 0.011 mPa·s and the mass density stood at 786.671 ± 0.13 kg/m3.
On to `CO` [methanol] + CCC(=O)OCCN1CCNCC1, for which the viscosity in data set [2] (293.15 K) is recorded as 0.595 ± 0.007 mPa·s; in data set [2] (298.15 K) it was 0.559 ± 0.007 mPa·s; in data set [2] (303.15 K), 0.527 ± 0.007 mPa·s; in data set [2] (308.15 K) it was 0.498 ± 0.006 mPa·s; in data set [2] (313.15 K), 0.471 ± 0.006 mPa·s; in data set [2] (318.15 K), 0.448 ± 0.006 mPa·s. In data set [2] (323.15 K), the viscosity came out at 0.428 ± 0.005 mPa·s. Also, the mass density in data set [2] (293.15 K) was 791.38 ± 0.15 kg/m3; in data set [2] (298.15 K) it was 786.67 ± 0.15 kg/m3; in data set [2] (303.15 K), 781.95 ± 0.15 kg/m3; in data set [2] (308.15 K), 777.2 ± 0.16 kg/m3; in data set [2] (313.15 K), 772.43 ± 0.16 kg/m3; in data set [2] (318.15 K), 767.62 ± 0.16 kg/m3. In data set [2] (323.15 K), the mass density is reported as 762.77 ± 0.16 kg/m3.
Regarding `O` [water], in data set [1], the viscosity is reported as 0.887 ± 0.012 mPa·s.
In the case of `O` [water] + CCC(=O)OCCN1CCNCC1, the viscosity in data set [2] (293.15 K) came to 0.994 ± 0.012 mPa·s; in data set [2] (298.15 K), 0.887 ± 0.011 mPa·s; in data set [2] (303.15 K) it was 0.799 ± 0.01 mPa·s; in data set [2] (308.15 K), 0.726 ± 0.009 mPa·s; in data set [2] (313.15 K), 0.665 ± 0.008 mPa·s; in data set [2] (318.15 K) it was 0.614 ± 0.008 mPa·s. In addition, in data set [2] (323.15 K), the viscosity is on record as 0.567 ± 0.007 mPa·s. Moreover, the mass density in data set [2] (308.15 K) stood at 994.07 ± 0.11 kg/m3.
